Assay results: patent US10308634B2, “Substituted indazoles, methods for the production thereof, pharmaceutical preparations that contain said new substituted indazoles, and use of said new substituted indazoles to produce drugs” (BAYER PHARMA AKTIENGESELLSCHAFT, priority 2014, dated 2019)
Read-outs that look alike come from different tables or passages of the source.

Tests used:
human IRAK4 = human IRAK4 (Homo sapiens (Human), UniProt Q9NWZ3); assay: IRAK4 kinase assay (IRAK4 TR-FRET assay); assay type: biochemical
human IRAK4, sequence (Q9NWZ3 whole entry): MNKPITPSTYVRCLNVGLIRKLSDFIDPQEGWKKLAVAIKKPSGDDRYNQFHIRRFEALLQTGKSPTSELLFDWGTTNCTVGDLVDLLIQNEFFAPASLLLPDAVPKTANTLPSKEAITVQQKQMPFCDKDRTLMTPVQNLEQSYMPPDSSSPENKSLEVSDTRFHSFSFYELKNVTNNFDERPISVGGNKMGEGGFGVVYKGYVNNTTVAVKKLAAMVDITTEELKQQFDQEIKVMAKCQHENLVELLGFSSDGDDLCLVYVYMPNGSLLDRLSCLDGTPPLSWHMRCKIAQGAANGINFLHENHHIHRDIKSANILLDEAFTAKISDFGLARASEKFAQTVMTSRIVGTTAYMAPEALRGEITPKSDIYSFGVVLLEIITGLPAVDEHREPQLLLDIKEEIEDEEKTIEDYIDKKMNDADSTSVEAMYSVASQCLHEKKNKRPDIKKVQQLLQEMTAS
Method: The IRAK4-inhibitory activity of the inventive substances was measured in the IRAK4 TR-FRET assay (TR-FRET=Time Resolved Fluorescence Resonance Energy Transfer) described hereinafter.
Recombinant fusion protein from N-terminal GST (glutathione S-transferase) and human IRAK4, expressed in baculovirus-infected insect cells (Hi5, BTI-TN-5B1-4, cell line purchased from Invitrogen, catalogue No. B855-02) and purified via affinity chromatography, was used as enzyme. The substrate used for the kinase reaction was the biotinylated peptide biotin-Ahx-[…] (C-terminus in amide form) which can be purchased, for example, from Biosyntan GmbH (Berlin-Buch).
50 nl of the respective solution were pipetted into a black low-volume 384-well microtitre plate (Greiner Bio-One, Frickenhausen, Germany), 2 μl of a solution of IRAK4 in assay buffer [50 mM HEPES pH 7.5, 5 mM MgCl2, 1.0 mM dithiothreitol, 30 μM activated sodium orthovanadate, 0.1% (w/v) of bovine gamma-globulin (BGG) 0.04% (v/v) nonidet-P40 (Sigma)] were added and the mixture was incubated for 15 min to allow prebinding of the substances to the enzyme prior to the kinase reaction. […] The concentration of the IRAK4 was adjusted to the respective activity of the enzyme and set such that the assay was carried out in the linear range. Typical concentrations were in the order of about 0.2 nM.
The resulting mixture was incubated at 22° C. for 1 h to allow formation of a complex of the biotinylated phosphorylated substrate and the detection reagents. The amount of the phosphorylated substrate was then evaluated by measuring the resonance energy transfer from europium chelate-labelled anti-mouse-IgG antibody to streptavidin-XL665. […] The IC50 values were calculated by a 4-parameter fit.

THP-1 cells = assay: TNF-α secretion in THP-1 cells (LPS-triggered, HTRF); assay type: cell-based; settings: Homo sapiens, read-out: IC50 with respect to the secretion of TNF-α in THP-1 cells
Method: This test is suited to test substances for their ability to inhibit secretion of TNF-α (tumour necrosis factor alpha) in THP-1 cells (human monocytic acute leukaemia cell line). TNF-α is a cytokine involved in inflammatory processes. In this test, TNF-α secretion is triggered by incubation with bacterial lipopolysaccharide (LPS).
The cells were incubated at room temperature for 15 min. 2-2.5 μl of 0.1 μg/ml LPS (Sigma, Escherichia coli 055:B5, Cat. No. L5418) dissolved in cell culture medium (final concentration 0.05 μg/ml) were then dispensed into each well. As neutral control, cells were treated with 0.05 μg/ml LPS and 1% DMSO and, as inhibitor control, with 1% DMSO only.
The amount of TNF-α was determined using the TNF-alpha HTRF Detection Kit (Cisbio, Cat. No. 62TNFPEB/C). To this end, 2 μl of the detection solution in each case, consisting of anti-TNF-α-XL665 conjugate and anti-TNF-α-cryptate conjugate dissolved in the reconstitution buffer in accordance with the manufacturer's instructions, were added for the HTRF (Homogeneous Time-Resolved Fluorescence) test. After the addition, the mixture was incubated either at room temperature for 3 h or at 4° C. overnight.
The activity of the substances is expressed as the ratio between neutral and inhibitor control in percent. The IC50 values were calculated using a 4-parameter fit.

[1] = TR-FRET, 1 mM ATP, read-out: IC50 in the IRAK4 kinase assay

| Structure (SMILES) | IC50 (human IRAK4; [1]) | IC50 (THP-1 cells; THP-1, 0.05 μg/ml LPS, 17 h) | IC50 (THP-1 cells; THP-1, 17 h) | IC50 (human IRAK4) |
| --- | --- | --- | --- | --- |
| COCCn1cc2cc(NC(=O)c3cccc(C(F)(F)F)n3)c(CO)cc2n1 [Example 2, N-[6-(Hydroxymethyl)-2-(2-methoxyethyl)-2H-indazol-5-yl]-6-(trifluoromethyl)pyridine-2-carboxamide] | – | 15100 nM | – | – |
| COCCCn1cc2cc(NC(=O)c3cccc(C(F)(F)F)n3)c(CO)cc2n1 [Example 4, N-[6-(Hydroxymethyl)-2-(3-methoxypropyl)-2H-indazol-5-yl]-6-(trifluoromethyl)pyridine-2-carboxamide] | 52.7 nM | 5600 nM | – | – |
| O=C(Nc1cc2cn(CCO)nc2cc1CO)c1cccc(C(F)(F)F)n1 [Example 7, N-[2-(2-Hydroxyethyl)-6-(hydroxymethyl)-2H-indazol-5-yl]-6-(trifluoromethyl)pyridine-2-carboxamide] | 867 nM | 16400 nM | – | – |
| CC(C)(O)c1cc2nn(CC3COC3)cc2cc1NC(=O)c1cccc(C(F)(F)F)n1 [Example 8, N-[6-(2-Hydroxypropan-2-yl)-2-(oxetan-3-ylmethyl)-2H-indazol-5-yl]-6-(trifluoromethyl)pyridine-2-carboxamide] | 15 nM | 1000 nM | – | – |
| O=C(Nc1cc2cn(CC3COC3)nc2cc1CO)c1cccc(C(F)(F)F)n1 [Example 9, N-[6-(Hydroxymethyl)-2-(oxetan-3-ylmethyl)-2H-indazol-5-yl]-6-(trifluoromethyl)pyridine-2-carboxamide] | 104 nM | 6500 nM | – | – |
| CC(C)(O)CCn1cc2cc(NC(=O)c3cccc(C(F)F)n3)c(C(C)(C)O)cc2n1 [Example 13, 6-(Difluoromethyl)-N-[2-(3-hydroxy-3-methylbutyl)-6-(2-hydroxypropan-2-yl)-2H-indazol-5-yl]pyridine-2-carboxamide] | 1.3 nM | – | 100 nM | – |
| CC(C)(O)c1cc2nn(CCS(C)(=O)=O)cc2cc1NC(=O)c1cccc(C(F)F)n1 [Example 14, 6-(Difluoromethyl)-N-{6-(2-hydroxypropan-2-yl)-2-[2-(methylsulphonyl)ethyl]-2H-indazol-5-yl}pyridine-2-carboxamide] | 10.8 nM | 200 nM | – | – |
| CC(C)(O)c1cc2nn(CCCO)cc2cc1NC(=O)c1cccc(C(F)F)n1 [Example 15, 6-(Difluoromethyl)-N-[6-(2-hydroxypropan-2-yl)-2-(3-hydroxypropyl)-2H-indazol-5-yl]pyridine-2-carboxamide] | 12.3 nM | 200 nM | – | – |
| Cc1nc(C(=O)Nc2cc3cn(CCC(C)(C)O)nc3cc2C(C)(C)O)ccc1F [Example 19, 5-Fluoro-N-[2-(3-hydroxy-3-methylbutyl)-6-(2-hydroxypropan-2-yl)-2H-indazol-5-yl]-6-methylpyridine-2-carboxamide] | 8.9 nM | – | 100 nM | – |
| Cc1cccc(C(=O)Nc2cc3cn(CCC(C)(C)O)nc3cc2C(C)(C)O)n1 [Example 20, N-[2-(3-Hydroxy-3-methylbutyl)-6-(2-hydroxypropan-2-yl)-2H-indazol-5-yl]-6-methylpyridine-2-carboxamide] | 13.3 nM | 200 nM | – | – |
| CC(C)(O)c1cc2nn(CCC3(O)CC3)cc2cc1NC(=O)c1cccc(C(F)(F)F)n1 [Example 22, N-{2-[2-(1-Hydroxycyclopropyl)ethyl]-6-(2-hydroxypropan-2-yl)-2H-indazol-5-yl}-6-(trifluoromethyl)pyridine-2-carboxamide] | 3.7 nM | – | – | – |
| COCCn1cc2cc(NC(=O)c3cccc(C(F)(F)F)n3)c(C(=O)OC)cc2n1 [Intermediate 4-2, Methyl 2-(2-methoxyethyl)-5-({[6-(trifluoromethyl)pyridin-2-yl]carbonyl}amino)-2H-indazole-6-carboxylate] | – | – | – | 21.7 nM |
| COCCCn1cc2cc(NC(=O)c3cccc(C(F)(F)F)n3)c(C(=O)OC)cc2n1 [Intermediate 4-3, Methyl 2-(3-methoxypropyl)-5-({[6-(trifluoromethyl)pyridin-2-yl]carbonyl}amino)-2H-indazole-6-carboxylate] | – | – | – | 13 nM |
| COC(=O)c1cc2nn(CCC(C)(C)O)cc2cc1NC(=O)c1cccc(C(F)(F)F)n1 [Intermediate 4-4, Methyl 2-(3-hydroxy-3-methylbutyl)-5-({[6-(trifluoromethyl)pyridin-2-yl]carbonyl}amino)-2H-indazole-6-carboxylate] | – | – | – | 6.2 nM |

Further lines, with some results ahead:

| IC50 (human IRAK4; [1]) | IC50 (THP-1 cells; THP-1, 0.05 μg/ml LPS, 17 h) | Structure (SMILES) | IC50 (THP-1 cells; THP-1, 17 h) | IC50 (human IRAK4) |
| --- | --- | --- | --- | --- |
| 30.6 nM | 1000 nM | COCCn1cc2cc(NC(=O)c3cccc(C(F)(F)F)n3)c(C(C)(C)O)cc2n1 [Example 1, N-[6-(2-Hydroxypropan-2-yl)-2-(2-methoxyethyl)-2H-indazol-5-yl]-6-(trifluoromethyl)pyridine-2-carboxamide] | – | – |
| 264 nM | 5400 nM | CC(C)(O)c1cc2nn(CCO)cc2cc1NC(=O)c1cccc(C(F)(F)F)n1 [Example 5, N-[2-(2-Hydroxyethyl)-6-(2-hydroxypropan-2-yl)-2H-indazol-5-yl]-6-(trifluoromethyl)pyridine-2-carboxamide] | – | – |
| 35.7 nM | 900 nM | CC(C)(O)c1cc2nn(CCCO)cc2cc1NC(=O)c1cccc(C(F)(F)F)n1 [Example 6, N-[6-(2-Hydroxypropan-2-yl)-2-(3-hydroxypropyl)-2H-indazol-5-yl]-6-(trifluoromethyl)pyridine-2-carboxamide] | – | – |
| 18.5 nM | 1000 nM | CC(C)(O)c1cc2nn(CCCS(C)(=O)=O)cc2cc1NC(=O)c1cccc(C(F)(F)F)n1 [Example 10, N-{6-(2-Hydroxypropan-2-yl)-2-[3-(methylsulphonyl)propyl]-2H-indazol-5-yl}-6-(trifluoromethyl)pyridine-2-carboxamide] | – | – |
| 21.5 nM | 200 nM | CC(C)(O)c1cc2nn(CCCC(F)(F)F)cc2cc1NC(=O)c1cccc(C(F)(F)F)n1 [Example 16, N-[6-(2-Hydroxypropan-2-yl)-2-(4,4,4-trifluorobutyl)-2H-indazol-5-yl]-6-(trifluoromethyl)pyridine-2-carboxamide] | – | – |
| 36 nM | 500 nM | CC(C)(O)c1cc2nn(CCCOC(F)(F)F)cc2cc1NC(=O)c1cccc(C(F)(F)F)n1 [Example 17, N-{6-(2-Hydroxypropan-2-yl)-2-[3-(trifluoromethoxy)propyl]-2H-indazol-5-yl}-6-(trifluoromethyl)pyridine-2-carboxamide] | – | – |
| 47.5 nM | 300 nM | CC(C)(O)c1cc2nn(CCCOCC(F)(F)F)cc2cc1NC(=O)c1cccc(C(F)(F)F)n1 [Example 18, N-{6-(2-Hydroxypropan-2-yl)-2-[3-(2,2,2-trifluoroethoxy)propyl]-2H-indazol-5-yl}-6-(trifluoromethyl)pyridine-2-carboxamide] | – | – |
| 117 nM | 1800 nM | CC(C)(O)c1cccc(C(=O)Nc2cc3cn(CCCC(F)(F)F)nc3cc2C(C)(C)O)n1 [Example 21, 6-(2-Hydroxypropan-2-yl)-N-[6-(2-hydroxypropan-2-yl)-2-(4,4,4-trifluorobutyl)-2H-indazol-5-yl]pyridine-2-carboxamide] | – | – |
